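Step 1: Grow cells in 96-well plates. Step 2: Expose to compound for 48 hours at 5 concentrations. Step 3: Interpolate endpoints linearly; if unreached, use highest concentration. At the TGI there is no net growth.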
Tests used:
Test in all cases: NCI tumour cell line growth inhibition, 48 h
SK-OV-3 ovarian = system: SK-OV-3 ovarian
CCRF-CEM leukemia = system: CCRF-CEM leukemia
T-47D breast = system: T-47D breast
MDA-MB-435 = system: MDA-MB-435
K-562 leukemia = system: K-562 leukemia
NCI-H460 lung = system: NCI-H460 lung
MOLT-4 leukemia = system: MOLT-4 leukemia
SF-268 CNS = system: SF-268 CNS
PC-3 prostate = system: PC-3 prostate
ACHN renal = system: ACHN renal
CAKI-1 renal = system: CAKI-1 renal
UO-31 renal = system: UO-31 renal
SF-295 CNS = system: SF-295 CNS
U251 CNS = system: U251 CNS
HOP-62 NSCLC = system: HOP-62 NSCLC
MCF7 breast = system: MCF7 breast
SK-MEL-2 melanoma = system: SK-MEL-2 melanoma
MDA-MB-231 breast = system: MDA-MB-231 breast
DU-145 prostate = system: DU-145 prostate
HOP-92 NSCLC = system: HOP-92 NSCLC
KM12 colon = system: KM12 colon
TK-10 renal = system: TK-10 renal
M14 melanoma = system: M14 melanoma
SF-539 CNS = system: SF-539 CNS
BT-549 breast = system: BT-549 breast
SN12C renal = system: SN12C renal
MALME-3M melanoma = system: MALME-3M melanoma
RXF 393 renal = system: RXF 393 renal
HCC-2998 colon = system: HCC-2998 colon
SK-MEL-5 melanoma = system: SK-MEL-5 melanoma
OVCAR-8 ovarian = system: OVCAR-8 ovarian
EKVX NSCLC = system: EKVX NSCLC
LOX IMVI melanoma = system: LOX IMVI melanoma
UACC-257 melanoma = system: UACC-257 melanoma
HS 578T breast = system: HS 578T breast
OVCAR-3 ovarian = system: OVCAR-3 ovarian
HL-60(TB) leukemia = system: HL-60(TB) leukemia
NCI/ADR-RES ovarian = system: NCI/ADR-RES ovarian
OVCAR-5 ovarian = system: OVCAR-5 ovarian
OVCAR-4 ovarian = system: OVCAR-4 ovarian
SNB-75 CNS = system: SNB-75 CNS
HCT-116 colon = system: HCT-116 colon
HT29 colon = system: HT29 colon
HCT-15 colon = system: HCT-15 colon
SW-620 colon = system: SW-620 colon
MDA-N = system: MDA-N
IGROV1 ovarian = system: IGROV1 ovarian
SR leukemia = system: SR leukemia
SK-MEL-28 melanoma = system: SK-MEL-28 melanoma
786-0 renal = system: 786-0 renal
A549 NSCLC = system: A549 NSCLC
NCI-H23 lung = system: NCI-H23 lung
COLO 205 colon = system: COLO 205 colon
RPMI-8226 leukemia = system: RPMI-8226 leukemia
NCI-H226 lung = system: NCI-H226 lung
NCI-H522 lung = system: NCI-H522 lung
SNB-19 CNS = system: SNB-19 CNS
UACC-62 melanoma = system: UACC-62 melanoma
A498 renal = system: A498 renal

Q: CCn1c2c(c3c(C(=O)OC)c(O)ccc31)C(=O)c1ccccc1C2=O was tested. Which TGI (SK-OV-3 ovarian) did it give?
A: The TGI was 30.4 µM.

Q: What about the TGI (CCRF-CEM leukemia) of the same molecule?
A: Its TGI is 43.6 µM.

Q: What about the TGI (T-47D breast) of the same molecule?
A: Its TGI is 33 µM.

Q: And the TGI (MDA-MB-435)?
A: Its TGI is 32.4 µM.

Q: What about the TGI (K-562 leukemia) of the same molecule?
A: Its TGI is > 100 µM.

Q: And the TGI (NCI-H460 lung)?
A: The TGI was 27.9 µM.

Q: And the TGI (MOLT-4 leukemia)?
A: Its TGI is 61.5 µM.

Q: And the TGI (SF-268 CNS)?
A: The TGI was 69.6 µM.

Q: And the TGI (PC-3 prostate)?
A: The TGI was 42.7 µM.

Q: And the TGI (ACHN renal)?
A: The TGI was 21.9 µM.

Q: What about the TGI (CAKI-1 renal) of the same molecule?
A: The TGI was 94.6 µM.

Q: What about the TGI (UO-31 renal) of the same molecule?
A: The TGI was 27.3 µM.

Q: What about the TGI (SF-295 CNS) of the same molecule?
A: Its TGI is 47.1 µM.

Q: What about the TGI (U251 CNS) of the same molecule?
A: The TGI was 36.3 µM.

Q: What about the TGI (HOP-62 NSCLC) of the same molecule?
A: The TGI was 30.1 µM.

Q: And the TGI (MCF7 breast)?
A: Its TGI is 70.8 µM.

Q: What about the TGI (SK-MEL-2 melanoma) of the same molecule?
A: The TGI was 30.5 µM.

Q: And the TGI (MDA-MB-231 breast)?
A: Its TGI is 51.5 µM.

Q: And the TGI (DU-145 prostate)?
A: The TGI was 38.9 µM.

Q: What about the TGI (HOP-92 NSCLC) of the same molecule?
A: The TGI was 32.8 µM.

Q: And the TGI (KM12 colon)?
A: The TGI was 34.6 µM.

Q: And the TGI (TK-10 renal)?
A: The TGI was > 100 µM.

Q: And the TGI (M14 melanoma)?
A: Its TGI is 28.3 µM.

Q: What about the TGI (SF-539 CNS) of the same molecule?
A: Its TGI is 36 µM.

Q: And the TGI (BT-549 breast)?
A: Its TGI is 39.5 µM.

Q: What about the TGI (SN12C renal) of the same molecule?
A: The TGI was 29.4 µM.

Q: And the TGI (MALME-3M melanoma)?
A: Its TGI is 35 µM.

Q: And the TGI (RXF 393 renal)?
A: The TGI was 52.6 µM.

Q: What about the TGI (HCC-2998 colon) of the same molecule?
A: Its TGI is 34.9 µM.

Q: What about the TGI (SK-MEL-5 melanoma) of the same molecule?
A: The TGI was 27.6 µM.

Q: What about the TGI (OVCAR-8 ovarian) of the same molecule?
A: The TGI was 30.7 µM.

Q: And the TGI (EKVX NSCLC)?
A: Its TGI is 59.7 µM.

Q: And the TGI (LOX IMVI melanoma)?
A: Its TGI is 71.6 µM.

Q: And the TGI (UACC-257 melanoma)?
A: The TGI was > 100 µM.

Q: What about the TGI (HS 578T breast) of the same molecule?
A: The TGI was 55.3 µM.

Q: What about the TGI (OVCAR-3 ovarian) of the same molecule?
A: The TGI was 63.1 µM.

Q: What about the TGI (HL-60(TB) leukemia) of the same molecule?
A: The TGI was 57.3 µM.

Q: And the TGI (NCI/ADR-RES ovarian)?
A: Its TGI is 66 µM.

Q: And the TGI (OVCAR-5 ovarian)?
A: The TGI was 42.5 µM.

Q: And the TGI (OVCAR-4 ovarian)?
A: Its TGI is 37.5 µM.

Q: And the TGI (SNB-75 CNS)?
A: The TGI was 39.9 µM.

Q: What about the TGI (HCT-116 colon) of the same molecule?
A: The TGI was 26.5 µM.

Q: What about the TGI (HT29 colon) of the same molecule?
A: Its TGI is 36.5 µM.

Q: What about the TGI (HCT-15 colon) of the same molecule?
A: Its TGI is 30.1 µM.

Q: What about the TGI (SW-620 colon) of the same molecule?
A: The TGI was 33.8 µM.

Q: What about the TGI (MDA-N) of the same molecule?
A: Its TGI is 29.9 µM.

Q: What about the TGI (IGROV1 ovarian) of the same molecule?
A: Its TGI is 15.3 µM.

Q: And the TGI (SR leukemia)?
A: Its TGI is 46.6 µM.

Q: And the TGI (SK-MEL-28 melanoma)?
A: The TGI was 42.6 µM.

Q: And the TGI (786-0 renal)?
A: The TGI was 25.4 µM.

Q: And the TGI (A549 NSCLC)?
A: The TGI was 38.9 µM.

Q: And the TGI (NCI-H23 lung)?
A: The TGI was 48.7 µM.

Q: And the TGI (COLO 205 colon)?
A: The TGI was 33 µM.

Q: What about the TGI (RPMI-8226 leukemia) of the same molecule?
A: The TGI was 27.2 µM.

Q: What about the TGI (NCI-H226 lung) of the same molecule?
A: Its TGI is 34 µM.

Q: What about the TGI (NCI-H522 lung) of the same molecule?
A: The TGI was 23.8 µM.

Q: And the TGI (SNB-19 CNS)?
A: Its TGI is > 100 µM.

Q: What does the source list for CN(C)c1ccc(/C=C2\N=C(c3ccccc3)N(c3nc4c(Cl)cc(Cl)cc4s3)C2=O)cc1?
A: TGI (SK-OV-3 ovarian): > 100 µM; TGI (CCRF-CEM leukemia): 23.6 µM; TGI (T-47D breast): > 100 µM; TGI (MDA-MB-435): 67.6 µM; TGI (K-562 leukemia): > 100 µM; TGI (NCI-H460 lung): > 100 µM; TGI (MOLT-4 leukemia): > 100 µM; TGI (SF-268 CNS): > 100 µM; TGI (PC-3 prostate): > 100 µM; TGI (ACHN renal): > 100 µM; TGI (CAKI-1 renal): > 100 µM; TGI (UO-31 renal): > 100 µM; TGI (SF-295 CNS): > 100 µM; TGI (U251 CNS): > 100 µM; TGI (UACC-62 melanoma): > 100 µM; TGI (HOP-62 NSCLC): > 100 µM; TGI (MCF7 breast): > 100 µM; TGI (SK-MEL-2 melanoma): > 100 µM; TGI (A498 renal): 92.3 µM; TGI (MDA-MB-231 breast): > 100 µM; TGI (DU-145 prostate): > 100 µM; TGI (HOP-92 NSCLC): > 100 µM; TGI (KM12 colon): > 100 µM; TGI (TK-10 renal): > 100 µM; TGI (M14 melanoma): > 100 µM; TGI (SF-539 CNS): > 100 µM; TGI (BT-549 breast): > 100 µM; TGI (SN12C renal): > 100 µM; TGI (HCC-2998 colon): > 100 µM; TGI (SK-MEL-5 melanoma): > 100 µM; TGI (OVCAR-8 ovarian): > 100 µM; TGI (EKVX NSCLC): > 100 µM; TGI (LOX IMVI melanoma): > 100 µM; TGI (UACC-257 melanoma): > 100 µM; TGI (HS 578T breast): > 100 µM; TGI (OVCAR-3 ovarian): > 100 µM; TGI (HL-60(TB) leukemia): > 100 µM; TGI (NCI/ADR-RES ovarian): > 100 µM; TGI (OVCAR-5 ovarian): > 100 µM; TGI (OVCAR-4 ovarian): > 100 µM; TGI (HCT-116 colon): > 100 µM; TGI (HT29 colon): > 100 µM; TGI (HCT-15 colon): > 100 µM; TGI (SW-620 colon): > 100 µM; TGI (MDA-N): 56.8 µM; TGI (IGROV1 ovarian): > 100 µM; TGI (SR leukemia): > 100 µM; TGI (SK-MEL-28 melanoma): > 100 µM; TGI (786-0 renal): > 100 µM; TGI (A549 NSCLC): > 100 µM; TGI (COLO 205 colon): > 100 µM; TGI (RPMI-8226 leukemia): 77.5 µM; TGI (SNB-19 CNS): > 100 µM
